Consider 2 compounds from patent US8084494B2, “Substituted aminophenylsulfonamide compounds as HIV protease inhibitor” (priority 2005, dated 2011).

Assay in all cases: microbe, parasite or virus in culture
Type in all cases: cell-based

Test [1] has as its system clinically isolated HIV strain B-2-001. The settings on record: Human immunodeficiency virus 1, 72 h, read-out: EC50, Virus Strains B-2-001. Here is the method:
(§1) The compounds were tested in a cellular assay using the MT4-LTR-EGFP cells for anti-viral activity. […] Because of the increasing emergence of drug resistant HIV strains, the present compounds were tested for their potency against clinically isolated HIV strains harboring several mutations. […] The viral strains A, B, C and D contain mutations as indicated below in Table 2.
(§2) The cellular assay was performed according to the following procedure. HIV- or mock-infected MT4-LTR-EGFP cells were incubated for three days in the presence of various concentrations of the compounds according to the invention. Upon infection, the viral tat protein activates the GFP reporter. At the end of the incubation period, the GFP signal was measured. […] The inhibitory activity of the compound was monitored on the virus-infected cells and was expressed as EC50. These values represent the amount of the compound required to protect 50% of the cells from virus infection.

Test [2] deals with clinically isolated HIV strain D-2-001. The note with it: Human immunodeficiency virus 1, 72 h, read-out: EC50, Virus Strains D-2-001. On the procedure:
as §1, §2

The test system of test [3] is clinically isolated HIV strain C-2-001. The note with it: Human immunodeficiency virus 1, 72 h, read-out: EC50, Virus Strains C-2-001. On the procedure: as §1, §2
Test [4] relates to wild type laboratory HIV strain (WT IIIB-2-001). The note with it: Human immunodeficiency virus 1, IIIB, 72 h, read-out: EC50, Virus Strains WT IIIB-2-001. On the procedure: as §1, §2
The subject of test [5] is clinically isolated HIV strain A-2-001. The settings on record: Human immunodeficiency virus 1, 72 h, read-out: EC50, Virus Strains A-2-001. On the procedure:
as §1, §2

What is called EC50 is the concentration needed to bring the measured effect to its halfway point.

Structures are written as SMILES.

For `CC(C)CN(C[C@@H](O)[C@H](Cc1ccccc1)NC(=O)O[C@H]1CO[C@H]2OCC[C@H]21)S(=O)(=O)c1ccc(N)c(NCc2ccccn2)c1` [Compound 80, [3-({4-amino-3-[(pyridin-2-ylmethyl)-amino]-benzenesulfonyl}-isobutyl-amino)-1-benzyl-2-hydroxy-propyl]-carbamic acid hexahydro-furo[2,3-b]furan-3-yl ester], the EC50 in test [1] is 93.3 nM; in test [2] it was 38.9 nM; in test [3], 14.5 nM; in test [4], 8.91 nM; in test [5] it was 1.48 nM.
On the same counts, the results for `CC(C)CN(CC(O)C(Cc1ccccc1)NC(=O)OC1COC2OCCC12)S(=O)(=O)c1ccc(N)c(NCc2ccc(F)cc2F)c1` (stereo not shown) [Compound 78, (3-{[4-amino-3-(2,4-difluoro-benzylamino)-benzenesulfonyl]-isobutyl-amino}-1-benzyl-2-hydroxy-propyl)-carbamic acid hexahydro-furo[2,3-b]furan-3-yl ester] are 135 nM, 35.5 nM, 10 nM, 3.63 nM and 0.617 nM.
